These are literature values, as cited in patent US10933021B2, “Compositions of gallium (III) complexes for oral administration” (Altum Pharmaceuticals Inc., priority 2017, dated 2021).

Data set [1] addresses albumin (Homo sapiens, UniProt P02768). Particulars: human serum.
Data set [2] concerns the target transferrin (Tf) (Homo sapiens, UniProt P02787). Particulars: human serum.
The conditions of data set [3]: pH 7.4, serum.
Data set [4] has as its system apoptosis induction. The note with it: compared to simple gallium salts such as gallium nitrate.
Data set [5] relates to tumor cell lines resistant to gallium nitrate.
For data set [6] the following is noted: pH values below the pKa of 8-hydroxyquinoline (5.01).
The conditions of data set [7]: seven patients, oral enteric coated tablets of crystalline GaQ3, 10 mg, 20 mg, 30 mg strengths.

Each structure is given as a SMILES string.

Sequence of albumin (P02768 25-609): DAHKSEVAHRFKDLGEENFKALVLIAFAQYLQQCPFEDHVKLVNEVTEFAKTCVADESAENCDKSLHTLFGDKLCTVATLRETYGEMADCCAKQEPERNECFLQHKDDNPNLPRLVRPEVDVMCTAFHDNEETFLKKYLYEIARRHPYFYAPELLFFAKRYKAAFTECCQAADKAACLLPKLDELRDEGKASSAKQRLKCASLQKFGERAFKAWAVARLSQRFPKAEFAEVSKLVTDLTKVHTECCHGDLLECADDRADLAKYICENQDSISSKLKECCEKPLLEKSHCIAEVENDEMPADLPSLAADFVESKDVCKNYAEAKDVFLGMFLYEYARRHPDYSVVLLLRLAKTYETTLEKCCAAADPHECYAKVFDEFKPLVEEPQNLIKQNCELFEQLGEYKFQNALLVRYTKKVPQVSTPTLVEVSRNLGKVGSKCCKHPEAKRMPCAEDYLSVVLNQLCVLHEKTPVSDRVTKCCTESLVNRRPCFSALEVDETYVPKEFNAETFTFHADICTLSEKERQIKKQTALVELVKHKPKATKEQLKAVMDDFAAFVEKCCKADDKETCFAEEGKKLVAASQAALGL
Sequence of transferrin (Tf) (P02787 20-698): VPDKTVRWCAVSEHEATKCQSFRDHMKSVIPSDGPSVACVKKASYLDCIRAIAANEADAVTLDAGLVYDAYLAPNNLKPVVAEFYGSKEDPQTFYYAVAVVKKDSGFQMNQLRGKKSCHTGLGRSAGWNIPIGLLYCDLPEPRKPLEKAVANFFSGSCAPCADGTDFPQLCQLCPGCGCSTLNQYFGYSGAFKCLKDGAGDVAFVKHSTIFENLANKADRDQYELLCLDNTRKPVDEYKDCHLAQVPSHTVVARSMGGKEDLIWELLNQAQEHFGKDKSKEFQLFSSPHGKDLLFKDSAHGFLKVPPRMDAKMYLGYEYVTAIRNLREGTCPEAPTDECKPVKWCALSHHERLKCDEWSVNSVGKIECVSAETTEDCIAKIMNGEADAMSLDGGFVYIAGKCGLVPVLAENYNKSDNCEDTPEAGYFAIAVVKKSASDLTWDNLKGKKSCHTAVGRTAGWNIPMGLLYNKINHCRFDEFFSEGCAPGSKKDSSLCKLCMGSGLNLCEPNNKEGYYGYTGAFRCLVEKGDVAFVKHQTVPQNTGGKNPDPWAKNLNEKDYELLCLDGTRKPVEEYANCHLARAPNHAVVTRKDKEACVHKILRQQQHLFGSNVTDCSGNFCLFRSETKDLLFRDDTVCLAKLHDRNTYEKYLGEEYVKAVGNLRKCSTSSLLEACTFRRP

Take `[Ga+3].[O-]c1cccc2cccnc12.[O-]c1cccc2cccnc12.[O-]c1cccc2cccnc12` [GaQ3, tris (8-quinolinolato) gallium (III)]: the solubility in water is 18-22 ppm. In addition, the binding to albumin entry in data set [1] was “binds very weakly”. The “binding to transferrin (Tf)” value in data set [2] is on record as “strongly”. For the same molecule, in data set [3], the stability in serum result is “very stable”. Moreover, the “apoptosis induction relative to gallium nitrate” value in data set [4] is “ca. 3 ×”. For the same molecule, the “activity against tumor cell lines resistant to gallium nitrate” value in data set [5] is on record as “active”. Besides, in data set [6], the “integrity of complexed structure” value is given as “disrupted completely”. For the same molecule, the tolerability entry in data set [7] is on record as “well tolerated”.
